The record followed here is PubChem BioAssay (NCI).

Each structure is given as a SMILES string.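 How tested: cells in 96-well plates exposed to compound for 48 hours at five concentrations. TGI: total growth inhibition.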

The subject of one assay is SW-620 colon. Kind of assay: inhibition of tumour cell growth, NCI panel, 48 h.
In turn, `C=CCSc1nc2ccccc2c(=O)n1Cc1ccco1` registered a TGI of more than 100 µM.

Another assay relates to HCC-2998 colon. Kind of assay: inhibition of tumour cell growth, NCI panel, 48 h.
`CC(C)/C(Cl)=N\OC(=O)Nc1ccc(C#N)cc1` registered a TGI of 29.9 µM.

`C=CC[C@]12C[C@@H](C(=O)OC)N(C(=O)OC)[C@H]1N(S(=O)(=O)c1ccccc1)c1ccccc12` gave a TGI of more than 100 µM.

`C=CCSc1nc2ccccc2c(=O)n1Cc1ccco1`: the TGI is more than 100 µM.

For another assay, the system named is EKVX NSCLC. Put plainly: inhibition of tumour cell growth, NCI panel, 48 h.
`CCOc1cc(C2CC(c3ccc(NS(=O)(=O)c4cc([N+](=O)[O-])ccc4C)cc3)=NN2C(=O)c2ccccc2)ccc1O` (stereo unspecified) came in with a TGI of 61.4 µM.

In turn, `CC(C)/C(Cl)=N\OC(=O)Nc1ccc(C#N)cc1` had a TGI of 7.31 µM.

The molecule `C=CC[C@]12C[C@@H](C(=O)OC)N(C(=O)OC)[C@H]1N(S(=O)(=O)c1ccccc1)c1ccccc12` gave a TGI of more than 100 µM.

As to `C=CCSc1nc2ccccc2c(=O)n1Cc1ccco1`, the TGI was more than 100 µM.

The subject of another assay is MDA-N. Kind of assay: inhibition of tumour cell growth, NCI panel, 48 h.
Take `CCOc1cc(C2CC(c3ccc(NS(=O)(=O)c4cc([N+](=O)[O-])ccc4C)cc3)=NN2C(=O)c2ccccc2)ccc1O` (stereo unspecified): the TGI was 70.6 µM.

In the case of `CC(C)/C(Cl)=N\OC(=O)Nc1ccc(C#N)cc1`, the TGI was 17.3 µM.

For `C=CC[C@]12C[C@@H](C(=O)OC)N(C(=O)OC)[C@H]1N(S(=O)(=O)c1ccccc1)c1ccccc12`, the TGI is more than 100 µM.

The molecule `C=CCSc1nc2ccccc2c(=O)n1Cc1ccco1` returned a TGI of more than 100 µM.

The next assay relates to SK-MEL-28 melanoma. Put plainly: inhibition of tumour cell growth, NCI panel, 48 h.
Turning to `CCOc1cc(C2CC(c3ccc(NS(=O)(=O)c4cc([N+](=O)[O-])ccc4C)cc3)=NN2C(=O)c2ccccc2)ccc1O` (stereo unspecified), the TGI is more than 100 µM.

On to `CC(C)/C(Cl)=N\OC(=O)Nc1ccc(C#N)cc1`, for which the TGI was determined as 25 µM.

`C=CC[C@]12C[C@@H](C(=O)OC)N(C(=O)OC)[C@H]1N(S(=O)(=O)c1ccccc1)c1ccccc12`: the TGI was more than 100 µM.

On to `C=CCSc1nc2ccccc2c(=O)n1Cc1ccco1`, for which the TGI was more than 100 µM.

Another assay relates to CAKI-1 renal. Kind of assay: inhibition of tumour cell growth, NCI panel, 48 h.
The molecule `CCOc1cc(C2CC(c3ccc(NS(=O)(=O)c4cc([N+](=O)[O-])ccc4C)cc3)=NN2C(=O)c2ccccc2)ccc1O` (stereo unspecified) had a TGI of more than 100 µM.

Regarding `CC(C)/C(Cl)=N\OC(=O)Nc1ccc(C#N)cc1`, the TGI turned out to be 10.3 µM.

Consider `C=CC[C@]12C[C@@H](C(=O)OC)N(C(=O)OC)[C@H]1N(S(=O)(=O)c1ccccc1)c1ccccc12`, for which the TGI was more than 100 µM.

`C=CCSc1nc2ccccc2c(=O)n1Cc1ccco1` showed a TGI of more than 100 µM.

In a further assay the test system is TK-10 renal. Put plainly: inhibition of tumour cell growth, NCI panel, 48 h.
Take `CCOc1cc(C2CC(c3ccc(NS(=O)(=O)c4cc([N+](=O)[O-])ccc4C)cc3)=NN2C(=O)c2ccccc2)ccc1O` (stereo unspecified): the TGI worked out at 54.2 µM.

As for `CC(C)/C(Cl)=N\OC(=O)Nc1ccc(C#N)cc1`, the TGI worked out at 12.9 µM.

Turning to `C=CC[C@]12C[C@@H](C(=O)OC)N(C(=O)OC)[C@H]1N(S(=O)(=O)c1ccccc1)c1ccccc12`, the TGI is more than 100 µM.

Turning to `C=CCSc1nc2ccccc2c(=O)n1Cc1ccco1`, the TGI is more than 100 µM.

A further assay deals with HOP-92 NSCLC. Kind of assay: inhibition of tumour cell growth, NCI panel, 48 h.
In the case of `CCOc1cc(C2CC(c3ccc(NS(=O)(=O)c4cc([N+](=O)[O-])ccc4C)cc3)=NN2C(=O)c2ccccc2)ccc1O` (stereo unspecified), the TGI stood at 47.6 µM.

`CC(C)/C(Cl)=N\OC(=O)Nc1ccc(C#N)cc1` registered a TGI of 2.98 µM.

For `C=CC[C@]12C[C@@H](C(=O)OC)N(C(=O)OC)[C@H]1N(S(=O)(=O)c1ccccc1)c1ccccc12`, the TGI is more than 100 µM.

Take `C=CCSc1nc2ccccc2c(=O)n1Cc1ccco1`: the TGI was more than 100 µM.

The subject of a further assay is HL-60(TB) leukemia. Kind of assay: inhibition of tumour cell growth, NCI panel, 48 h.
As to `CCOc1cc(C2CC(c3ccc(NS(=O)(=O)c4cc([N+](=O)[O-])ccc4C)cc3)=NN2C(=O)c2ccccc2)ccc1O` (stereo unspecified), the TGI came out at 65.4 µM.

Regarding `CC(C)/C(Cl)=N\OC(=O)Nc1ccc(C#N)cc1`, the TGI is more than 22.7 µM.

The molecule `C=CC[C@]12C[C@@H](C(=O)OC)N(C(=O)OC)[C@H]1N(S(=O)(=O)c1ccccc1)c1ccccc12` had a TGI of more than 100 µM.

A further assay has as its system K-562 leukemia. Kind of assay: inhibition of tumour cell growth, NCI panel, 48 h.
As for `CCOc1cc(C2CC(c3ccc(NS(=O)(=O)c4cc([N+](=O)[O-])ccc4C)cc3)=NN2C(=O)c2ccccc2)ccc1O` (stereo unspecified), the TGI was more than 100 µM.

For the molecule `CC(C)/C(Cl)=N\OC(=O)Nc1ccc(C#N)cc1`, the TGI was 4.82 µM.

Molecule `C=CC[C@]12C[C@@H](C(=O)OC)N(C(=O)OC)[C@H]1N(S(=O)(=O)c1ccccc1)c1ccccc12` returned a TGI of more than 100 µM.

On to `C=CCSc1nc2ccccc2c(=O)n1Cc1ccco1`, for which the TGI was more than 100 µM.

For a further assay, the system named is SF-539 CNS. Kind of assay: inhibition of tumour cell growth, NCI panel, 48 h.
In turn, `CCOc1cc(C2CC(c3ccc(NS(=O)(=O)c4cc([N+](=O)[O-])ccc4C)cc3)=NN2C(=O)c2ccccc2)ccc1O` (stereo unspecified) registered a TGI of 52.8 µM.

On to `CC(C)/C(Cl)=N\OC(=O)Nc1ccc(C#N)cc1`, for which the TGI is 29.4 µM.

`C=CC[C@]12C[C@@H](C(=O)OC)N(C(=O)OC)[C@H]1N(S(=O)(=O)c1ccccc1)c1ccccc12` displayed a TGI of more than 100 µM.

The molecule `C=CCSc1nc2ccccc2c(=O)n1Cc1ccco1` showed a TGI of more than 100 µM.

For another assay, the system named is HCT-116 colon. Kind of assay: inhibition of tumour cell growth, NCI panel, 48 h.
With `CCOc1cc(C2CC(c3ccc(NS(=O)(=O)c4cc([N+](=O)[O-])ccc4C)cc3)=NN2C(=O)c2ccccc2)ccc1O` (stereo unspecified), the TGI came to 56.5 µM.

`CC(C)/C(Cl)=N\OC(=O)Nc1ccc(C#N)cc1` yielded a TGI of 17.1 µM.

As for `C=CC[C@]12C[C@@H](C(=O)OC)N(C(=O)OC)[C@H]1N(S(=O)(=O)c1ccccc1)c1ccccc12`, the TGI is more than 100 µM.

`C=CCSc1nc2ccccc2c(=O)n1Cc1ccco1`: the TGI was more than 100 µM.

The test system of a further assay is HOP-62 NSCLC. Kind of assay: inhibition of tumour cell growth, NCI panel, 48 h.
As to `CCOc1cc(C2CC(c3ccc(NS(=O)(=O)c4cc([N+](=O)[O-])ccc4C)cc3)=NN2C(=O)c2ccccc2)ccc1O` (stereo unspecified), the TGI came to 47.2 µM.

`CC(C)/C(Cl)=N\OC(=O)Nc1ccc(C#N)cc1` showed a TGI of 31.6 µM.

Regarding `C=CC[C@]12C[C@@H](C(=O)OC)N(C(=O)OC)[C@H]1N(S(=O)(=O)c1ccccc1)c1ccccc12`, the TGI is more than 100 µM.

The molecule `C=CCSc1nc2ccccc2c(=O)n1Cc1ccco1` came in with a TGI of more than 100 µM.

For a further assay, the system named is MDA-MB-435. Put plainly: inhibition of tumour cell growth, NCI panel, 48 h.
Molecule `CCOc1cc(C2CC(c3ccc(NS(=O)(=O)c4cc([N+](=O)[O-])ccc4C)cc3)=NN2C(=O)c2ccccc2)ccc1O` (stereo unspecified) registered a TGI of more than 100 µM.

Turning to `CC(C)/C(Cl)=N\OC(=O)Nc1ccc(C#N)cc1`, the TGI amounted to 20.8 µM.

`C=CC[C@]12C[C@@H](C(=O)OC)N(C(=O)OC)[C@H]1N(S(=O)(=O)c1ccccc1)c1ccccc12`: the TGI was more than 100 µM.

With `C=CCSc1nc2ccccc2c(=O)n1Cc1ccco1`, the TGI was more than 100 µM.

Another assay relates to SNB-19 CNS. Put plainly: inhibition of tumour cell growth, NCI panel, 48 h.
Regarding `CCOc1cc(C2CC(c3ccc(NS(=O)(=O)c4cc([N+](=O)[O-])ccc4C)cc3)=NN2C(=O)c2ccccc2)ccc1O` (stereo unspecified), the TGI is more than 100 µM.

Molecule `CC(C)/C(Cl)=N\OC(=O)Nc1ccc(C#N)cc1` showed a TGI of 33.7 µM.

The molecule `C=CC[C@]12C[C@@H](C(=O)OC)N(C(=O)OC)[C@H]1N(S(=O)(=O)c1ccccc1)c1ccccc12` yielded a TGI of more than 100 µM.

Molecule `C=CCSc1nc2ccccc2c(=O)n1Cc1ccco1` displayed a TGI of more than 100 µM.

A further assay has as its system MDA-MB-231 breast. Put plainly: inhibition of tumour cell growth, NCI panel, 48 h.
In the case of `CCOc1cc(C2CC(c3ccc(NS(=O)(=O)c4cc([N+](=O)[O-])ccc4C)cc3)=NN2C(=O)c2ccccc2)ccc1O` (stereo unspecified), the TGI amounted to 48.1 µM.
